US5980913A, “Peptides having immunomodulatory activity” (Biochem Pharma, Inc., priority 1994, dated 1999)
Where a SMILES comes first, the peptide text is derived from it. [ ]: non-standard residue; d: D form.

What was measured:
[1] = system: P815 target cells; assay: Cytotoxic T lymphocytes (CTL) assay, 51Cr release, after 5 days mixed culture with drug; assay type: cell-based, C57BL/6 mice
Description: (§1) 1. Cytotoxic T Lymphocytes (CTL) Mixed Lymphocyte Reaction (MLR) and Mitogenic Response Assays
(§2) The protocols used are described in Hudson L., Haay F., Pratical immunology, 3rd edition, Blackwell, Scientific publications, Oxford 1989, p. 158-162, and p.447.
(§3) Lymphocytes were isolated from C57BL/6 mice and DBA/2 mice in accordance to techniques well known in the art. Cell concentration was adjusted to 10×10^6 cell/ml for each assay. The cells isolated from DBA/2 mice were irradiated with 3000 Rads.
(§4) In a 6 well plate, each well was set up with:
(§5) The cells were incubated for five days at 37° C. in 5% CO2, after which CTL and MLR assays were performed.
a) Cytotoxic T Lymphocytes (CTL)
P815 target cells were labelled with Cr^51 (0.1 mCi). After labelling, the cells were washed three times and resuspended to a concentration of 5×10^4 cells/ml in media. p T cells were then counted and diluted to obtain a concentration of 2.5×10^6 cells/ml, and then further diluted to obtain the following effector:target ratios:
100 μl of target cells+100 μl of CTLs were incubated for 4 hours. In parallel wells, 100 μl of target cells+100 μl of media were incubated for spntaneous release. After incubation, cells were centrifuged and 100 μl of supernatant was then counted using a gamma counter.
Results are expressed as % specific ^51 Cr release= [formula] where ER=experimental release, SR=spontaneous releaase, and
0 represents less than 20%, + represents 20-40%, ++ represents 40-60%, +++ represent 60-80%, and ++++ represents 80% and over.

[2] = system: B cells; assay: Activation of B cells by mitogenic proliferation (LPS, PWM); assay type: cell-based, C57BL/6 mice
Description: (§6) c) Activation of T or B cells by Mitogenic Proliferation
(§7) A mitogenic lectin (mitogen) is a glycoprotein which binds and cross-links specific cells surface carbohydrate determinants, and will polyclonally stimulate lymphoid cells. Lymphocyte activation by either antigens or mitogens results in intracellular changes and the subsequent development into a lymphoblast. Mitogenic stimulation of lymphocytes in vitro is believed to mimic the series of events which occur in vivo following their stimulation by specific antigens. PHA and ConA; PWM and LPS mitogens can be used as a measurement of T cell and B cell activity, respectively. Briefly, the spleen mononuclear leukocytes from C57BL/6 mice are incubated in the presence or absence of mitogens with or without candidate drugs. After 72 hours or 5 days, ^3 H-thymidine incorporation is recorded as an indication of cell proliferation.
(§8) Lymphocytes were isolated from mice spleen or human blood in accordance to methods well known in the art. 100 μl of cell suspension of 2×10^6 cells/ml was added per well (2x10^5 cells/well) and incubated in the presence of lectin at the following concentrations:
PWM=0.2 to 0.02% final concentration
(§9) Cells were incubated for 3 days with PHA or ConA, or 5 days with PWM or LPS. 1 μCi of tritiated thymidine was added to each well for the last 6 hours (or 0.5 μCi for 18 hrs). The cells were harvested in a cell Harvester (Tortech®) and counted in a Beta counter.

[3] = system: C57BL/6 lymphocytes with irradiated DBA/2 cells; assay: Mixed lymphocyte reaction (MLR), 3H thymidine uptake; assay type: cell-based, mice
Description: as §1, §2, §3, §4, §5
b) Mixed Lymphocyte Reaction (MLR)
Mixed lymphocyte reaction is an in vitro counterpart of the allograft rejection. Briefly, lymphocyte activation (mitotic response) is obtained when cells from two inbred strains or from two outbred individuals of any species are mixed in in vitro culture. To have a unidirectional response, the proliferation of either cell type may be blocked with X-ray irradiation or mitomycin C treatment. After 4 days incubation, ^3 H thymidine uptake and cytotoxicity assays (CTL) were performed. The cells were then resuspended and 100 μl of cell suspension was deposited in each well of a 96 well plate. 1 μCi of tritiated thymidine was added for 6 hours. After incubation, the cells were then harvested and counted using a Microbeta counter.

[4] = system: T cells; assay: Activation of T cells by mitogenic proliferation (ConA, PHA); assay type: cell-based, C57BL/6 mice
Description: as §6, §7, §8
PHA=0.01% to 0.001% final concentration
as §9

[5] = concentration not given, 0 not defined

Structure (SMILES)	CTL, % augmentation compared to IL-2 (IL-2 is 100%) ([1]; concentration not given)	Activation of B Cells, LPS [2, 5]	Activation of B Cells, PWM [2, 5]	MLR [3, 5]	Activation of T Cells, ConA [4, 5]	Activation of T Cells, PHA [4, 5]	CTL, % augmentation compared to IL-2 (IL-2 is 100%) ([1]; 10^-9 M)	Activation of B Cells, LPS ([2]; 10^-8 - 10^-5 M)	Activation of B Cells, PWM ([2]; 10^-8 - 10^-5 M)	stimulation of B cells in vitro (in words) ([2]; summary of Table 1)	MLR ([3]; 10^-9 M) [×]	Activation of T Cells, ConA ([4]; 10^-12 M - 10^-10 M) [×]	stimulation of T cells in vitro (in words) ([4]; summary of Table 1)	stimulation of CTL in vitro (in words) ([1]; summary of Table 1)
NCCCC[C@H](N)C(=O)N[C@@H](CC(N)=O)C(=O)N1CCC[C@H]1C(=O)N[C@@H](Cc1ccccc1)C(=O)O [PEPTIDE #4, H-Lys-Asn-Pro-Phe-OH] (H-KNPF-OH)	0 (0 represents less than 20%)	0	0	0	0	0	–	–	–	–	–	–	–	–
NCC(=O)N[C@@H](CC(N)=O)C(=O)N1CCC[C@H]1C(=O)N[C@@H](Cc1ccc(O)cc1)C(=O)O [PEPTIDE #8, H-Gly-Asn-Pro-Tyr-OH] (H-GNPY-OH)	–	0	0	–	0	0	–	–	–	–	–	–	–	–
NCCCC[C@H](N)C(=O)N[C@@H](CCC(N)=O)C(=O)N1CCC[C@H]1C(=O)N[C@@H](Cc1ccc(O)cc1)C(=O)O [PEPTIDE #6, H-Lys-Gln-Pro-Tyr-OH] (H-KQPY-OH)	0 (0 represents less than 20%)	0	0	0	0	0	–	–	–	–	–	–	–	–
NCCCC[C@H](N)C(=O)N[C@@H](CC(N)=O)C(=O)NCC(=O)N[C@@H](Cc1ccc(O)cc1)C(=O)O [PEPTIDE #2, H-Lys-Asn-Gly-Tyr-OH] (H-KNGY-OH)	–	–	–	–	–	0	++++ (++++ represents 80% and over)	1.8 - 3.5 ×	1.4 - 4.5 ×	stimulates B cells	1.8	1.3	stimulates T cells to a moderate extent	–
NCCCC[C@H](N)C(=O)N[C@@H](CC(N)=O)C(=O)N1CCC[C@@H]1C(=O)N[C@@H](Cc1ccc(O)cc1)C(=O)O [PEPTIDE #3, H-Lys-Asn-(D-Pro)-Tyr-OH] (H-KN[dP]Y-OH)	–	0	0	0	0	0	++ (++ represents 40-60%)	–	–	–	–	–	–	stimulate CTL
